Tests used:
[1] = Specific surface area by BET-nitrogen adsorption analysis; format: physicochemical
Procedure: The specific surface area (SSA) is assessed with a Quantachrome NOVA touch 2LX. The N2 is used as measuring gas and BET method is used to evaluate SSA. The following setup has been used for the measurement: • Adsorbate: Nitrogen • Sample cell: 9 mm large bulb cell, long; Measurement is performed with the corresponding filler rod • Sample masses*: approximately ¾ of cell bulb • Degassing conditions: 960 min at 30° C. under vacuum (ramping 10° C./min) • Measured points of isotherm: 11 equidistant points in the range 0.05-0.30 p/p0** • Points analyzed using BET: 7equidistant points from whole range 0.05-0.20 p/p0 • Use data reduction adsorbate model: Yes (N2) • Bath thermal delay: at least 600 s • P0 Option: continuous (measured each 30 minutes) • Void volume mode: Helium measure • Equilibration time: 160 s • Equilibration timeout: 2400 s • Tolerance: 0.05 • * Used amount of sample depends on its SSA and other physical parameters. The real surface area of sample in measuring cell should be between 1 m^2/g and 20 m^2/g. • ** Points above or below this range can be measured.

[2] = Particle size distribution by LASER diffraction (Malvern Mastersizer 2000); format: physicochemical
Procedure: The particle size distribution (PSD) is determined with LASER diffraction analyzer Malvern Mastersizer 2000 which operates in size ranges from 0.02 μm to 2,000 μm. The wet dispersion is prepared from dry powder sample and added to the dispersion unit. Gained raw data are computed by software to PSD with the use of Mie theory. This method is based on Ph. Eur. Method 2.9.31 and USP <429>.

[3] = cited from earlier work

- surface area [1]: 6.9 m^2/g
- D90 [2]: 11.5 μm
SMILES: CC(=O)c1c(C)c2cnc(Nc3ccc(N4CCNCC4)cn3)nc2n(C2CCCC2)c1=O [Palbociclib]
- solubility ([3]; above pH 4): reduces significantly
- solubility in water ([3]; at or below pH 4): high-solubility compound

From patent US11529353B2, “Pharmaceutical composition comprising Palbociclib” (Synthon B.V., priority 2017, dated 2022)
